From patent US8614064B2, “Methods of diagnosing atherosclerosis by measuring ApoCI” (The Johns Hopkins University, priority 2003, dated 2013)
Values belong to the compound of their own block, whether it stands above or below them.

Experiments:
N-SMase = experiment: Neutral sphingomyelinase assay in treated ASMC ([14C]sphingomyelin substrate); format: cell-based, human
Experimental: FIGS. 3A-3C depict the effects of ApoCI, ApoCIII, TNF-α, ApoCI-enriched HDL, and ApoCI-poor HDL on the activity of N-SMase in ASMC. Confluent cultures of ASMC were preincubated for 30 minutes with serum-free (control) medium, then ApoCI (2.5 μg/mL medium), ApoCIII (2.5 μg/mL medium), TNF-α (20 ng/mL medium) (FIG. 3A, top), or ApoCI-enriched HDL (1 μg apoAI/mL medium), or ApoCI-poor HDL (5 μg apoA-I/mL medium) (FIG. 3B, middle) were added individually to cells. The cells were then incubated and harvested at the indicated time points, and the activity was of N-SMase determined using [^14C]sphingomyelin as substrate. The N-SMase activity in control cells was 22 nmol/h per milligram cell protein, and this value was considered as 100% activity. In a separate experiment (FIG. 3C bottom), cells (0.5×10^5) were seeded in P60 Petri dishes and grown in DMEM supplemented with 10% fetal bovine serum for 5 days. After preincubation of cells for 30 minutes in serum-free medium, increasing amounts of ApoCI were added. After incubation for 10 minutes, cells were harvested, and N-SMase activity was measured.
After stimulation with ApoCI ApoCI-enriched HDL and ApoCI-poor HDL, the cells were washed with 5 ml of PBS and harvested. The pellets were stored frozen at −70° C. and resuspended in 0.5 ml of buffer (100 mM Tris-HCl pH 7.4, 0.1% Triton X-100, 1 mM EDTA and protease inhibitors). The cell suspension was sonicated 3 times (3-s bursts) using a probe sonicator and centrifuged at 500×g at 4° C. for 5 min. The supernatant was used as the enzyme source. 100 μg of protein was assayed for neutral sphingomyelinase activity in a buffer consisting of 50 mM Tris-HCl, pH 7.4, 0.1% Triton X-100, 0.1 mg of bovine serum albumin, 5 mM MgCl2 and […] of [^14C]sphingomyelin (specific activity 50 mCi/mmol, from American Radiolabled Chemicals (St. Louis, Mo.). The samples were incubated at 37° C. for 2 h and terminated with the addition of 1 ml of 10% trichloroacetic acid. The precipitate was pelleted (1000×g at 4° C. for 30 min) and 1 ml of the supernatant was extracted with 1 ml of anhydrous diethyl ether. About 0.5 ml of the aqueous phase was removed for liquid scintillation counting (Ghosh, N., and Chatterjee, S. (1998) J. Biol. Chem. 264, 12554-12561).

ceramide = experiment: Anti-ceramide antibody immunofluorescence microscopy in ASMC; format: cell-based, human; details: 24 h
Experimental: FIGS. 4A-4D depict the effect of ApoCI, ApoCI-enriched HDL, and ApoCI-poor HDL on the level of ceramide in ASMC. Confluent ASMC were incubated with ApoCI (2.5 μg/mL) with time (FIG. 4A, upper left) or with ApoCI-enriched HDL (1 μg apoA-I/mL medium) or ApoCI-poor HDL (5 μg apoA-I/mL medium) (FIG. 4B, upper right) for 30 minutes. FIG. 4C: The cells were incubated with ApoCI alone ([…]) for 5 minutes or preincubated with GW4869 (20 μmol/L) for 30 minutes. After addition of ApoCI (2.5 μg/mL), incubation was continued for 6 hours, 12 hours, and 24 hours. After incubation, cells were harvested and the levels of ceramide determined using the diacylglycerol kinase assay. The level of phosphate was measured and the data (mean±SD) were expressed as percentage of the total ceramide present in untreated cells (vehicle DMSO). *P<0.05. In a separate experiment (FIG. 4D, right), confluent cells were grown on cover slips and pretreated with serum-free medium for 30 minutes. The cells were then incubated with vehicle DMSO alone (control), ApoCI (2.5 μg/ML), or ApoCI (2.5 μg/mL) plus the N-SMase inhibitor GW4869 (20 μmol/L) for 24 hours. The cells were then washed, treated with a primary anticeramide antibody, washed with phosphate-buffered saline, and treated with a fluorescein isothiocyanate-conjugated anti-mouse IgG (FIG. 4C, lower panel).

cytochrome c = experiment: Immunofluorescence of cytochrome c in human cultured aortic smooth muscle cells; format: cell-based; details: 24 h
Experimental: FIGS. 5A-5C depict the effect of ApoCI, ApoCIII, ApoCI-enriched HDL, and GW4869 on cytochrome c release in ASMC. After treatment of confluent cells for 24 hours with ApoCI (2.5 μg/mL medium), ApoCIII (2.5 μg/mL medium), or ApoCI-enriched HDL (1 μg apoA-I/mL medium), the cells were lysed. The cell lysate was used as the source of cytochrome c, and the pellet was used as a source of caspase-3. The cell lysates were separated by SDS-polyacrylamide gel electrophoresis, blotted onto nitrocellulose, and cytochrome c detected using a polyclonal antibody against cytochrome c (FIG. 5A, top panel). The gels were then subjected to densitometric scanning (FIG. 5B, middle panel). In a separate experiment (FIG. 5C, right), confluent cells were grown on cover slips and pretreated with serum-free medium for 30 minutes. The cells were then incubated with control medium, ApoCI (2.5 μg/mL medium), TNF-α (20 ng/mL), or ApoCI (2.5 μg/mL)+GW4869 (20 μmol/L) for 24 hours. The cells were then washed, treated with a primary anti-cytochrome c antibody, washed with phosphate-buffered saline, and treated with a fluorescein isothiocyanate-conjugated anti-rabbit IgG (FIG. 5C, lower panel).
AOSMC (5×10^3) were grown on cover slips to confluence and pretreated with serum free medium for 30 min as described above. […]

- pattern of N-SMase stimulation with time (N-SMase; ApoCIII 2.5 μg/mL, ApoCI-poor HDL 5 μg apoA-I/mL, time course to 60 min): Such a pattern was not seen
Compound: ApoCIII: purified human ApoCIII purchased from Academy Bio-Medical Company, used as negative control

- increase in the activity of N-SMase at 5 minutes (N-SMase; 5 min, ApoCI 2.5 μg/mL, TNF-α 20 ng/mL, ApoCI-enriched HDL 1 μg apoA-I/mL, control 22 nmol/h per mg protein = 100%): ~2 fold
Compound: Apolipoprotein C-I (TPDVSSALDKLKEFGNTLEDKARELISRIKQSELSAKMREWFSETFQKVKEKLKIDS; UniProt P02654 27-83, looked up) [ApoCI, 6.6-kDa single-chain plasma protein of 57 amino acids; purified human ApoCI purchased from Academy Bio-Medical Company]
- anti-ceramide immunofluorescence of treated cells (ceramide; ApoCI 2.5 μg/mL, compared with control cells): reacted strongly
- release of cytochrome c from mitochondria into the cytoplasm (immunofluorescence) (cytochrome c; ApoCI 2.5 μg/mL): marked increase
- maximum increase in N-SMase activity, concentration dependence (FIG. 3C) (N-SMase; ApoCI 2.5 μg/mL medium, 10 min incubation): 1.5 fold

Compound: O=C(/C=C/c1ccc(/C=C/C(=O)Nc2ccc(C3=NCCN3)cc2)cc1)Nc1ccc(C2=NCCN2)cc1 [GW4869]
- effect of GW4869 on ApoCI-induced ceramide immunofluorescence (ceramide; ApoCI 2.5 μg/mL plus GW4869 20 μmol/L): eliminated
- effect of GW4869 on ApoCI-induced cytochrome c release (immunofluorescence) (cytochrome c; ApoCI 2.5 μg/mL + GW4869 20 μmol/L): inhibited
